From ChEMBL document CHEMBL1144066, “Aurantosides D, E, and F: new antifungal tetramic acid glycosides from the marine sponge Siliquariaspongia japonica” (J Nat Prod, 1999) come the findings set out here.

Values after ≈ are worked out from the molar mass of the structure shown. Active and inactive are the calls of the source. The calls are words filed in the database; no cut-off is given here. Some results are limits rather than exact numbers.

In assay [1] the test system is Candida albicans. Nature of the assay: Antifungal activity against Candida albicans. It counts as functional.
Assay [2] relates to Candida albicans. Briefly: Antifungal activity against Candida albicans at 2 ug/disk. It counts as functional. The note with it: for zone of inhibition at 2 µg/disc: read-out: IZ.
The subject of assay [3] is Aspergillus fumigatus. Nature of the assay: Antifungal activity against Aspergillus fumigatus at 2 ug/disk. The note with it: read-out: IZ. The format is functional.
Assay [4] concerns Aspergillus fumigatus. Briefly: Antifungal activity against Aspergillus fumigatus. It counts as functional.
The next assay has as its system P388. Nature of the assay: Cytotoxicity against mouse P388 cells. The format is functional, cell-based.

Turning to `CO[C@@H]1[C@H](O[C@@H]2CO[C@@H](O[C@@H]3[C@@H](O)[C@H](O)CO[C@H]3N3C(=O)/C(=C(O)/C=C/C=C/C=C/C=C/C=C(Cl)/C=C/C=C/C=C(/C)Cl)C(=O)[C@@H]3CC(N)=O)[C@@H](O)[C@@H]2O)O[C@H](C)[C@H]1O`, the outcome in the assay with Candida albicans [1] and in the assay on Candida albicans [2] was inactive.

Take `CO[C@@H]1[C@H](O[C@@H]2CO[C@@H](O[C@@H]3[C@@H](O)[C@H](O)CO[C@H]3N3C(=O)/C(=C(O)/C=C/C=C/C=C/C=C/C=C(Cl)/C=C(\C)Cl)C(=O)[C@@H]3CC(N)=O)[C@@H](O)[C@@H]2O)O[C@H](C)[C@H]1O` [AURANTOSIDE A]: the zone of inhibition at 2 µg/disc in the assay on Aspergillus fumigatus [3] was 18 mm; with Candida albicans [2], 11.3 mm. For the same compound, the MIC (usually the lowest concentration found to suppress growth) came to 1.25 µg/mL (≈ 1.53 µM) with Candida albicans [1] and 0.16 µg/mL (≈ 0.196 µM) in the assay with Aspergillus fumigatus [4]. For the same compound, in the assay with P388, the IC50 (as a rule, the concentration that inhibits the measured activity by half) was above 5 µg/mL.

On to `C\C(Cl)=C/C(Cl)=C/C=C/C=C/C=C/C=C/C(O)=C1\C(=O)[C@H](CC(N)=O)N([C@@H]2OC[C@@H](O)[C@H](O)[C@H]2O[C@@H]2OC[C@@H](O[C@@H]3O[C@H](C)[C@@H](O)[C@@H]3O)[C@@H](O)[C@@H]2O)C1=O` [AURANTOSIDE B], for which the zone of inhibition at 2 µg/disc was determined as 17.2 mm in the assay on Aspergillus fumigatus [3] and 11.8 mm with Candida albicans [2]. For the same compound, the MIC came to 0.63 µg/mL (≈ 0.784 µM) in the assay with Candida albicans [1] and 0.16 µg/mL (≈ 0.199 µM) with Aspergillus fumigatus [4]. In the assay on P388, this compound gave an IC50 above 5 µg/mL.

In the case of `C/C(Cl)=C/C=C/C(Cl)=C/C=C/C=C/C=C/C=C/C(O)=C1\C(=O)[C@H](CC(N)=O)N([C@@H]2OC[C@@H](O)[C@H](O)[C@H]2O[C@@H]2OC[C@@H](O[C@@H]3O[C@H](C)[C@@H](O)[C@@H]3O)[C@@H](O)[C@@H]2O)C1=O` [AURANTOSIDE D], the results for the zone of inhibition at 2 µg/disc with Aspergillus fumigatus [3] and in the assay with Candida albicans [2] were 11 mm and 9.5 mm, respectively. Also, the IC50 in the assay on P388 was 0.2 µg/mL (≈ 0.241 µM).

Take `CO[C@@H]1[C@H](O[C@@H]2CO[C@@H](O[C@@H]3[C@@H](O)[C@H](O)CO[C@H]3N3C(=O)/C(=C(O)/C=C/C=C/C=C/C=C/C=C(Cl)/C=C/C=C(/C)Cl)C(=O)[C@@H]3CC(N)=O)[C@@H](O)[C@@H]2O)O[C@H](C)[C@H]1O` [AURANTOSIDE E]: the results for the zone of inhibition at 2 µg/disc with Aspergillus fumigatus [3] and with Candida albicans [2] were 13.6 mm and 9.7 mm, respectively. The results for the MIC in the assay with Candida albicans [1] and against Aspergillus fumigatus [4] were 0.16 µg/mL (≈ 0.19 µM) and 0.04 µg/mL (≈ 0.0474 µM), respectively. In the assay with P388, this compound had an IC50 of 0.2 µg/mL (≈ 0.237 µM).
